Measured values taken from patent US20230303551A1, “N-CYCLYL-SULFONAMIDES USEFUL FOR INHIBITING RAF” (ALBERT EINSTEIN COLLEGE OF MEDICINE, priority 2020, published 2023).
Entries after “also recorded” stand apart in the source; their conditions may differ.

Legend:
SK-MEL-239-C4 cells = assay: Cell viability (Cell-Titer Glo), SK-MEL-239-C4; assay type: cell-based; conditions: SK-MEL-239-C4, 72 hr
Experimental: (§1) For cell viability and proliferation assays, we followed the manufacturer's protocol for Cell-Titer Glo (Promega). In brief, cells were plated in 96-well plates at a density of 5000 cells per well. The next day, cells were treated with increasing concentrations of inhibitors for 72 hours at 37° C. At the end of the incubation period, 100 μL of Cell-Titer Glo (Promega) was added to each well and further incubated for 15 min at room temperature. Cell viability was determined by measuring luminescence and was detected by a F200 PRO microplate reader (TECAN). Viability assays were performed in at least triplicate and the data normalized to vehicle-treated control wells. IC50 values were determined by nonlinear regression analysis using Prism software (Graphpad). Antiproliferative synergy was determined by co-treatment of inhibitors at indicated concentrations in 96-well plated at a density of 3000 cells per well. Inhibitors or DMSO control were injected using a D300e digital dispenser (TECAN). Extend of synergy was quantified using the BLISS matrix method.

RKO cells = assay: Cell viability (Cell-Titer Glo), RKO; assay type: cell-based
Experimental: as §1

BRAF^V600E [1] = target: T1, BRAF^V600E (Homo sapiens, UniProt P15056, V600E); assay: Z'-LYTE kinase activity assay, BRAF^V600E; assay type: biochemical; conditions: equilibrium; ZLYTE
Experimental: BRAF kinase assays were performed using the Z′-LYTE™ enzymatic assay (Invitrogen, USA). […] Titrations were performed using a 1:3 dilution. Assays were performed using SelectScreen (Invitrogen).

BRAF^V600E [2] = target: T1, BRAF^V600E; assay: LanthaScreen Eu kinase binding assay
Experimental: Binding affinity of inhibitors to recombinant full-length BRAF was determined using the LanthaScreen Eu Kinase Binding Assay (Invitrogen) in PBS buffer. Initially, saturated binding of fluorescent Alexa Fluor 647 ATP-site tracer T178 (Invitrogen) on BRAF, which was his-tagged at the N-terminus, was established. T178 tracer was then competed-off by increasing amounts of inhibitors in titration experiments in 96-well plates. Competition was detected by loss of TR-FRET signal. The signal was produced by a FRET pair between an Eu-labeled anti his-tag antibody, which recognizes his-tagged BRAF used in the assay, and the T178 tracer. The europium donor was excited using a 340 nm excitation filter and energy transfer to the T178 tracer was measured using a filter centered at 665 nm with a time delay of 200 μs. The emission ratio was calculated as the 665 nm signal divided by the 615 nm signal. The apparent % inhibition was calculated by least squares fits of the emission ratio. […] The maximum DMSO concentration in the assay was 2%.

full length BRAF^V600E = full length BRAF^V600E (Homo sapiens, UniProt P15056, V600E); assay: In vitro residence time (ATP-site tracer T178 displacement, LanthaScreen); assay type: binding; conditions: kinase ATP-probe displacement
Experimental: Residence times of inhibitors to recombinant full-length BRAF was determined using an adaptation of the LanthaScreen Eu Kinase Binding Assay (Invitrogen). Initially, binding of inhibitors to his-tagged BRAF labelled with Eu-anti-his antibody at 80-90% saturation was established, by incubating inhibitors and BRAF in PBS buffer (max DMSO 2%) for […] The reactions were then rapidly diluted 25× times in a saturated concentration of the fluorescent ATP-site tracer T178 (Invitrogen). Dissociation of inhibitors from BRAF by T178 tracer was monitored in real-time by detecting the TR-FRET […] to […] emission ratio every 20 sec. The TR-FRET signal was normalized between 100% (no inhibitors present) and 0% (saturated inhibitor binding). Time traces were fit to a single exponential to obtain the half-life (t1/2) of dissociation of inhibitors. Residence times for each inhibitor were calculated as (t1/2)/ln2.

[3] = system: pERK in melanoma A375 cells expressing BRAF^V600E; assay: pERK inhibition in A375 cells (Western blot densitometry); assay type: cell-based; conditions: 1 hr treatment
Experimental: Western blots were performed from whole cell lysates (WCLs) prepared in lysis buffer containing 50 mM Tris-HCl pH7.5, 1% NP40, 150 mM NaCl, 1 mM EDTA and 10% glycerol in the presence of protease inhibitor cocktail (Roche). WCLs were separated on a 4-12% NuPAGE MES gel (Invitrogen), transferred onto a PVDF membrane, blocked for lhr and immunoblotted with the corresponding antibodies.
(§2) Densitometric data for p-ERK, p-MEK, ERK1/2 (MAPK cellular activity) or BRAF and GAPDH (CETSA analysis) from western blot scanned films were obtained using Image Studio software (LI-COR). Data were corrected to loading control (total ERK1/2 or GAPDH) and normalized to DMSO treated bands (100%) and blot backgrounds (0%). IC50 or Tm values were obtained from non-linear regression fits of normalized data to a four-parameter logistic curve (4PL).

p-MEK in A375 cells = assay: Wash-out and recovery of MAPK signaling in A375 cells; assay type: cell-based; conditions: for relative p-MEK1/2 after washout: A375, 500 nM for 1 hr, then washout
Experimental: Wash-out experiments were conducted in A375 cells. After treatment with inhibitors at 500 nM for 1 h (on time), cells were incubated with fresh medium for the indicated times (off time). p-MEK levels were determined by WB and were quantified by densitometric analysis. p-MEK levels were normalized to total ERK1/2 which was used as loading control and control cells (DMSO treatment). Data were fit to an exponential model using least squares, to obtain apparent half-life (t1/2) values.
as §2

[4] = system: p-ERK1/2 and p-MEK1/2 in SKMEL239-C4 cells; assay: Wash-out and recovery of MAPK signaling in SKMEL239-C4 cells; assay type: cell-based; conditions: SKMEL239-C4, 500 nM for 1 hr, then washout
A375 cells = assay: Cell viability (Cell-Titer Glo), A375; assay type: cell-based; conditions: Homo sapiens, A-375; A375, 72 hr
Experimental: as §1

A549 cells = assay: Cell viability and antiproliferative synergy with cobimetinib (Bliss matrix), A549; assay type: cell-based; conditions: A549, combination with cobimetinib (COB)
Experimental: as §1

panel of 97 kinases = assay: KinomeScan; assay type: binding; conditions: competition screen
[5] = Pharmacokinetic profile, mouse plasma levels after oral gavage; assay type: in vivo, CD-1 female mice; conditions: 5 mg/kg
Experimental: (§3) The pharmacokinetic profile of DAB and DABK was assessed in CD-1 female mice after a single dose at 5 mg/kg by oral gavage. Blood samples were collected at various time points (0.5, 1, 2, 4, 6, 12 and 24 hr after oral gavage) and inhibitor concentrations in plasma determined by an internal standard HPLC-chromatography tandem mass spectrometry method using calibration standards prepared in blank mouse plasma. Reported plasma concentrations are average values from 3 mice per time point. For PD study, tumor xenografts were established by subcutaneous implantation of A375 melanoma cells plus Matrigel (BD Biosciences) into the right flank of female SCID mice. Mice were randomized to treatment and control groups when the average tumor volume reached 100-150 mm^3 and were treated with a single oral dose (PO) of either vehicle or inhibitors at 5 mg/kg. Tumors were harvested at 2, 12 and 24 hr post PO (3 mice per group). Harvested tumors were homogenized in lysis buffer containing 50 mM Tris-HCl pH7.5, 1% NP40, 150 mM NaCl, 1 mM EDTA, 10% glycerol and phosphatase/protease inhibitors. pERK levels in clarified lysates were determined by Western Blotting and were expressed as % inhibition by normalization to average levels from vehicle tumors (0% inhibition). Vehicle formulation for DAB and DABK treatment in both PK and PD was 30% PEG-400, 0.5% Tween-20, 5% Glycerol in PBS.

[6] = system: pERK in A375 xenograft tumors; assay: Pharmacodynamic study, pERK in A375 xenograft tumors; assay type: in vivo, female SCID mice; conditions: 5 mg/kg single oral dose, A375 mice xenograft
Experimental: as §3

BRAF^V600E [7] = target: T1, BRAF^V600E; assay: Cellular Thermal Shift Assay (CETSA) in A375 cells; assay type: cell-based; set-up: endogenous in cells; host or cells: A375 melanoma cells; conditions: A375 cells, 1, 5 and 20 μM
Description: as §2
For CETSA analysis, cultured A375 melanoma cells were washed with Dulbecco's phosphate buffered saline (DPBS) and split into 500 μL aliquots (each containing 3,75 million cells) in the same buffer, containing DMSO control (20 μM) or 1, 5 and 20 μM of DAB or DABK. The samples were incubated for 1 hr at room temperature, rotating. After compound incubation, samples (50 μL each) were transferred in PCR tubes and incubated for 3 min in a temperature gradient produced with a C1000 thermal cycler (Bio-Rad). Cells were immediately lysed by repeating freeze-thaw cycles (3× times) in liquid nitrogen. Lysates were spun in a microcentrifuge at 15.000× g for 15 min at 4° C. Equal volumes of supernatants were run on 15-well 4-12% NuPAGE SDS-PAGE gels (Invitrogen), and analyzed by western blot. Results were quantitated by densitometric analysis and were normalized to GAPDH loading control, which is temperature insensitive under these conditions. […]

T1 sequence (P15056 whole entry V600E): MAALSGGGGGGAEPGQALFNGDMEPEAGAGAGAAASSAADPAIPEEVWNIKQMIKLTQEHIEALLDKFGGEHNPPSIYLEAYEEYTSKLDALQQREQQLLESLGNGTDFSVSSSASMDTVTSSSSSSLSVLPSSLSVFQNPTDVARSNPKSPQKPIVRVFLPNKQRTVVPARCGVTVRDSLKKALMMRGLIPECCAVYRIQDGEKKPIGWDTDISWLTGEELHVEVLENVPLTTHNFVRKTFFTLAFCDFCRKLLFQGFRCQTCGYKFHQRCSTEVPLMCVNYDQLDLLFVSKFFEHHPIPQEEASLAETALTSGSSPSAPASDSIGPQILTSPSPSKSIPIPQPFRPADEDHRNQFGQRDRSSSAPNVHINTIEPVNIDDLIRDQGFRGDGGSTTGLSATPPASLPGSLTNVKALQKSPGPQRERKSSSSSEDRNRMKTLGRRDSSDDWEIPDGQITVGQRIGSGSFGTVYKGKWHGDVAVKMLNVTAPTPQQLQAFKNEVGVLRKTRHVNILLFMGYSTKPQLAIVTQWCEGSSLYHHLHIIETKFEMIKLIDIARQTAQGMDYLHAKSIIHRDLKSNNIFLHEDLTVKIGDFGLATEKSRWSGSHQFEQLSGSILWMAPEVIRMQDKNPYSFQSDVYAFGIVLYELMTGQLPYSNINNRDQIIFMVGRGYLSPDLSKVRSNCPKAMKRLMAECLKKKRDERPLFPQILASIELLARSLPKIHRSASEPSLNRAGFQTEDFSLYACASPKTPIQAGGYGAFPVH
full length BRAF^V600E, sequence (P15056 whole entry V600E): as above

SMILES	IC50 (SK-MEL-239-C4 cells; 72 h) [nM]	IC50 (RKO cells; Homo sapiens, 72 h) [nM]	apparent in vitro residence time (Koff) (full length BRAF^V600E)	IC50 of pERK inhibition [3]	relative p-MEK1/2 after washout (p-MEK in A375 cells)	p-MEK1/2 inhibition after washout [4]	relative p-ERK1/2 after washout [4]	IC50 (A375 cells) [nM]	IC50 (SK-MEL-239-C4 cells) [nM]	IC50 (RKO cells; 72 hr) [nM]	melting temperature (Tm) (BRAF^V600E [7])	further results
CCCS(=O)(=O)Nc1ccc(F)c(C(=O)c2c[nH]c3ncc(-c4ccc(Cl)cc4)cc23)c1F [VEM, vemurafenib]	> 400	> 400	–	–	–	–	–	–	–	–	–	–
COC(=O)N[C@@H](C)CNc1nccc(-c2sc(C(C)(C)C)nc2-c2cccc(NS(=O)(=O)c3c(F)cccc3F)c2F)n1 [DABK]	35	20	sustained binding in the time frame of the experiment	comparable IC50 to Enco	prolonged signaling inhibition over time	Almost complete p-MEK1/2 inhibition over time	prolonged ERK signaling inhibition over time	3.4	35.3	20.6	very similar	IC50, kinase inhibitory activity (BRAF^V600E [1]): low nM range; Kd, binding affinity (BRAF^V600E [2]): low nM range; half-life of recovery of pMEK inhibition (p-MEK in A375 cells; A375, 500 nM for 1 h, then wash-out): 2.5 hours; retention of p-MEK inhibition relative to DAB (p-MEK in A375 cells; A375 wash-out, times longer than DAB): approximately 4.4 times; extent of antiproliferative synergy (A549 cells): strong synergy; targeting selectivity across the kinome (panel of 97 kinases): improved compared to DAB's; also recorded: improved targeting selectivity across the kinome; also recorded: higher specificity than DAB; clearance from the blood [5]: faster clearance from the blood than DAB; endurance of pERK inhibition in tumors [6]: > 12 hr
C[C@@H](CNc1nccc(-c2sc(C(C)(C)C)nc2-c2cccc(NS(=O)(=O)c3c(F)cccc3F)c2F)n1)NC(=O)CCO [Compound K6]	–	–	–	–	prolonged signaling inhibition over time	Almost complete p-MEK1/2 inhibition over time	prolonged ERK signaling inhibition over time	–	–	–	–	–
CC(C)(C)c1nc(-c2cccc(NS(=O)(=O)c3c(F)cccc3F)c2F)c(-c2ccnc(N)n2)s1 [DAB, dabrafenib]	> 400	> 400	significantly shorter residence times	lower IC50	–	–	–	5.3	456	425	very similar	–
COC(=O)N[C@@H](C)CNc1nccc(-c2cn(C(C)C)nc2-c2cc(Cl)cc(NS(C)(=O)=O)c2F)n1 [Enco, encorafenib]	> 400	> 400	sustained binding in the time frame of the experiment	–	–	–	–	–	–	–	–	–
COC(=O)N[C@@H](CN)CNc1nccc(-c2sc(C(C)(C)C)nc2-c2cccc(NS(=O)(=O)c3c(F)cccc3F)c2F)n1 [Compound K8]	–	–	–	–	prolonged signaling inhibition over time	Almost complete p-MEK1/2 inhibition over time	prolonged ERK signaling inhibition over time	–	–	–	–	–
